{"source": "patent US20110294732A1", "about": "“ERYTHROPOLETIN COMPLEMENTATION OR REPLACEMENT” (Universite De Strasbourg, priority 2007, published 2011)", "key": {"[1]": {"test_system": "circulating RBC", "assay": "P50 shift of circulating RBC after oral administration in drinking water", "format": "in vivo, C57BL/6 mice", "experimental": "In experiments conducted in vivo in which ITPP was administered orally, ITPP was dissolved in drinking (not deionized) water at a 20 g/L-concentration (=27 mM, pH 7.0) and offered for drinking ad libitum. A significant shift of the P50 value of circulating RBCs was observed.\nTwelve C57BL/6 mice drank ITPP over 4 days (about 25 ml/24 hrs). Seven Control mice drank either pure water (three mice), or a solution of IHP (inositol hexaphosphate without the internal pyrophosphate rings) at the same concentration and pH as ITPP (4 mice). […] Blood was collected from the tail vein of the 12 C57BL/6 mice on day 0 (before treatment started), 1, 2, 4, 6, 7, 8, 10, 11 and 12, in order to measure P50 values. […] Oral application of ITPP caused significant right shifts of P50 (up to 31%) in mice.\nThe 12 mice were observed over 12 days, the P50 values of their circulating RBC were measured almost daily. […] It appears that all mice ingesting the aqueous solution of ITPP present a shift of the P50 value of their circulating RBC, albeit with individual differences. FIG. 8 illustrates the individual differences in the P50 shift induced in the mice by ingestion of the aqueous solution of ITPP."}, "[2]": {"assay": "Blood counts of mice after oral ingestion", "format": "in vivo", "details": "single mouse, oral in water for 4 days, day 7; day 0 count 8.9-11.8", "excerpt": "Blood from mice that ingested ITPP or IHP in water (for 4 days) or water only was collected on day 0, 7 and 11, in order to assess any differences in the blood count (and the amount of erythropoietin in the sera) of treated and control mice. […] The amount of blood from the other mice was not sufficient to determine the blood count."}, "[3]": {"target": "T1, hemoglobin (Homo sapiens, UniProt P68871)", "T1 sequence (P68871 2-147 limits assumed)": "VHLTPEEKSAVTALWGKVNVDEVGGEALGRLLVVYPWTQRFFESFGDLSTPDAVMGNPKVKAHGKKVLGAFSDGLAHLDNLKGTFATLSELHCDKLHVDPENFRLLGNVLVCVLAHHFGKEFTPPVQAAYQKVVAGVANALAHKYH", "T1 sequence (P69905 2-142 partner limits assumed)": "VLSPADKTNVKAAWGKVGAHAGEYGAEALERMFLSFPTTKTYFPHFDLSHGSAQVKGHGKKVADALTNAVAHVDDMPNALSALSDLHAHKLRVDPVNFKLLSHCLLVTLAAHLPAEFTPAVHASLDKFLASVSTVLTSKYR", "details": "relative to DPG; cited from earlier work"}, "[4]": {"target": "T1, hemoglobin", "details": "pH 7.4 and 37 degrees C; cited from earlier work"}, "[5]": {"assay": "Blood counts of mice after oral ingestion", "format": "in vivo", "details": "single mouse, oral in water for 4 days; day 0 count 8.9-11.8"}, "[6]": {"assay": "Solubility of ITPP salts", "format": "physicochemical", "excerpt": "(§1) Alternatively, ITPP-Ca can be produced by the addition of equimolar amounts of CaCl2 with an aqueous solution of ITPP-Na. The resulting mixture gives ITPP-Ca, which contains NaCl as an impurity."}, "[7]": {"assay": "Toxicity of ITPP salts", "details": "compared with the calcium salt / mixed salt", "excerpt": "as §1"}}, "data": [{"compound": "O=P(O)(O)O[C@H]1[C@H](OP(=O)(O)O)[C@@H](OP(=O)(O)O)[C@H](OP(=O)(O)O)[C@@H](OP(=O)(O)O)[C@H]1OP(=O)(O)O", "note": "[IHP, Inositol hexaphosphate, reference compound]", "values": [{"measurement": "right shift of P50", "setting": "[1]; oral, 20 g/L (27 mM) in drinking water over 4 days", "result": "complete absence of shift"}, {"measurement": "P50 day 7, %", "setting": "[1]; single mouse, oral in water for 4 days, day 7", "result": 3, "unit": "%"}, {"measurement": "P50 day 10, %", "setting": "[1]; single mouse, oral in water for 4 days, day 10", "result": 0, "unit": "%"}, {"measurement": "RBC × 10^6/mm^3 (day 7)", "setting": "[2]", "result": "9.6 10^6/mm^3"}, {"measurement": "affinity to hemoglobin, higher than DPG", "setting": "[3]", "result": 1000, "unit": "fold"}, {"measurement": "P50 of hemoglobin increased up to", "setting": "[4]", "result": "≤ 96.4", "unit": "mm Hg"}, {"measurement": "RBC × 10^6/mm^3", "setting": "[5]", "result": "10.77 10^6/mm^3"}]}, {"compound": "O=P1([O-])OC2C3OP(=O)([O-])OP(=O)([O-])OC3C3OP(=O)([O-])OP(=O)([O-])OC3C2OP(=O)([O-])O1.[Ca+2].[Ca+2].[Ca+2]", "note": "(stereo not drawn) [pure calcium salt of ITPP, Calcium Salt of myo-inositol 1,6:2,3:4,5-tripyrophosphate]", "values": [{"measurement": "solubility", "setting": "[6]", "result": "relatively insoluble"}]}, {"compound": "O=P1([O-])OC2C3OP(=O)([O-])OP(=O)([O-])OC3C3OP(=O)([O-])OP(=O)([O-])OC3C2OP(=O)([O-])O1.[Na+].[Na+].[Na+].[Na+].[Na+].[Na+]", "note": "(stereo not drawn) [pure sodium salt, myo-inositol tripyrophosphate]", "values": [{"measurement": "toxicity", "setting": "[7]", "result": "relatively more toxic"}]}]}
